Data reported in patent US6225494A, “Trisubstituted phenyl derivatives having retinoid agonist or inverse agonist type biological activity” (Allergan Sales, Inc., priority 1999, dated 2001).
pKd: −log10 of the molar value.

What was measured:
Assay in all cases: Ligand binding assay
RARγ = biological target: T1, RARγ (Homo sapiens, UniProt P13631)
T1 sequence (P13631 1-454): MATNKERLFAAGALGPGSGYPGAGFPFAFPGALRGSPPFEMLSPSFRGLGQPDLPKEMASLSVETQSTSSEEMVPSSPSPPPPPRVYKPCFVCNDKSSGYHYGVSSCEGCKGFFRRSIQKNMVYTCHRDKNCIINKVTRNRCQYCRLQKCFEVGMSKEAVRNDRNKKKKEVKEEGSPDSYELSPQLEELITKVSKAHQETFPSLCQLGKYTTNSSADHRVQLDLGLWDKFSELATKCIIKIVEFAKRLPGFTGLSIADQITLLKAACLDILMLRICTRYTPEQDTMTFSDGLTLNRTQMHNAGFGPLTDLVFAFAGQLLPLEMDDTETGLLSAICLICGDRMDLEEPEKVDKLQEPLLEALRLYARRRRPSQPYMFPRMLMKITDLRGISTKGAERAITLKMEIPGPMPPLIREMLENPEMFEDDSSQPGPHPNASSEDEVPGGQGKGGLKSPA
Excerpt: (§1) Other assays described below, measure the ability of the compounds of the present invention to bind to, and/or activate various retinoid receptor subtypes. When in these assays a compound binds to a given receptor subtype and activates the transcription of a reporter gene through that subtype, then the compound is considered an agonist of that receptor subtype. […] In the below described assays the ability of the compounds to bind to RARα, RARβ, RARγ, RXRα, RXRβ and RXR.tau. receptors, and the ability or inability of the compounds to activate transcription of a reporter gene through these receptor subtypes can be tested.
(§2) A holoreceptor transactivation assay and a ligand binding assay which measure the antagonist/agonist like activity of the compounds of the invention, or their ability to bind to the several retinoid receptor subtypes, respectively, are described in published PCT Application No. WO WO93/11755 (particularly on pages 30-33 and 37-41) published on Jun. 24, 1993, the specification of which is also incorporated herein by reference. A detailed experimental procedure for holoreceptor transactivations has been described by Heyman et aL Cell 68, 397-406, (1992); Allegretto et aL J. Biol. Chem. 268, 26625-26633, and Mangelsdorf et aL The Retinoids: Biology, Chemistry and Medicine, pp 319-349, Raven Press Ltd., New York, which are expressly incorporated herein by reference. The results obtained in this assay are expressed in EC50 numbers, as they are also in the chimeric receptor transactivation assay. The results of ligand binding assay are expressed in Kd numbers. (See Cheng et aL Biochemical Pharmacology Vol. 22 pp 3099-3108, expressly incorporated herein by reference.)

RARα = biological target: T2, RARα (Homo sapiens, UniProt P10276)
T2 sequence (P10276 1-462): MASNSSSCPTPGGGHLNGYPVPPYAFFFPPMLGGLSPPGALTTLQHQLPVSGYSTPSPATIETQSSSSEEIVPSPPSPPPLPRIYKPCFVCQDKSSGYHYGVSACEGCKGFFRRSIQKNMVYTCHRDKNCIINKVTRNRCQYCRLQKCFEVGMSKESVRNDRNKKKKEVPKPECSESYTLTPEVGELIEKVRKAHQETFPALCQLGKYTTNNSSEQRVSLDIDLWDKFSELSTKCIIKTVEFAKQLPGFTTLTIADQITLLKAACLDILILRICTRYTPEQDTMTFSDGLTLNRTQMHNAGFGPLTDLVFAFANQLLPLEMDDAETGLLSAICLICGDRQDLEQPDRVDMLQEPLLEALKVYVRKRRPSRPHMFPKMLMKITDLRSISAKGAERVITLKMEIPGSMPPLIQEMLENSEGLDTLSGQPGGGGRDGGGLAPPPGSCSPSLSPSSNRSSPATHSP
Excerpt: as §1, §2

RARβ = biological target: T3, RARβ (Homo sapiens, UniProt P10826); conditions: read-out: Kd RABβ
T3 sequence (P10826 1-448 isoform P10826-2): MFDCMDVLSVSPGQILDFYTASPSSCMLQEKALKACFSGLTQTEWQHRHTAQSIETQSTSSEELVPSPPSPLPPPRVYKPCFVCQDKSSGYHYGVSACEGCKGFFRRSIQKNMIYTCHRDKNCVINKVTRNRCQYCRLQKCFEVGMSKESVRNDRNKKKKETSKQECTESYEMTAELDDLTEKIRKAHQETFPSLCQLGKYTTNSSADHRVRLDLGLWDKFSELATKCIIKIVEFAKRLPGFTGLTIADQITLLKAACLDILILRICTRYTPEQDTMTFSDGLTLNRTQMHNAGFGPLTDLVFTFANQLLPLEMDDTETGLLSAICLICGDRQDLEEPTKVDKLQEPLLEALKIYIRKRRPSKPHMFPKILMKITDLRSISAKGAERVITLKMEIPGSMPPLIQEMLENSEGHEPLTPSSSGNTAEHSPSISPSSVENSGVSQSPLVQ
Excerpt: as §1, §2

SMILES	pKd (RARγ)	pKd (RARα)	pKd (RARβ)
Cc1ccc(C(=O)c2cc(C#Cc3ccc(C(=O)O)cc3)ccc2O)cc1 [Compound 5, 4-[[4'-hydroxy-3'-(4"-methyl)benzoyl]phenylethynyl]benzoic acid]	6.05	6.47	7.01
C=C(c1ccc(C)cc1)c1cc(C#Cc2ccc(C(=O)O)cc2)ccc1O [Compound 8, 4-[[4'-Hydroxy-3'-(1-p-tolyl)vinyl]phenylethynyl]benzoic acid]	5.28	5.09	5.88
C=C(c1ccc(C)cc1)c1cc(C#Cc2ccc(C(=O)O)cc2)ccc1OCOC [Compound 9, 4-[[4'-methoxymethoxy-3'-(1-p-tolyl)vinyl]phenylethynyl]benzoic acid]	6.14	6.03	6.82
C=C(c1ccc(C)cc1)c1cc(C#Cc2ccc(C(=O)O)cc2)ccc1OC [Compound 12, 4-[[4'-Methoxy-3'-(1-p-tolyl)vinyl]phenylethynyl]benzoic acid]	6.40	5.84	6.71
COCOc1ccc(C#Cc2ccc(C(=O)O)cc2)cc1C(=O)c1ccc(C)cc1 [Compound 13]	6.04	5.93	6.31
C=C(c1ccc(C)cc1)c1cccc(C#Cc2ccc(C(=O)O)cc2)c1 [Compound 20, 4-[[3'-(1-p-Tolyl)vinyl]phenylethynyl]benzoic acid]	< 6.00	< 6.00	6.65
COc1ccc(C#Cc2ccc(C(=O)O)cc2)cc1C(=O)c1ccc(C)cc1 [Compound 22, 4-[[4'-methoxy-3'-(4"-methyl)benzoyl]phenylethynyl]benzoic acid]	5.82	5.80	6.12
Cc1ccc(C(=O)c2cc(C#Cc3ccc(C(=O)O)c(F)c3)c(C)cc2O)cc1 [Compound 25, 4-[[4'-Hydroxy-2'-methyl-5'-(4"-methyl)benzoyl]phenylethynyl]-2-fluoro-benzoic acid]	5.71	5.94	6.66
C=C(c1ccc(C)cc1)c1cc(C#Cc2ccc(C(=O)O)cc2)ccc1OC(C)C [Compound 28, 4-[[4'-Isopropoxy-3'-(1-p-tolyl)vinyl]phenylethynyl]benzoic acid]	6.02	5.68	6.27
C=C(c1ccc(C)cc1)c1cc(C#Cc2ccc(C(=O)O)c(F)c2)ccc1OC(C)C [Compound 29, 4-[[4'-Isopropoxy-3'-(1-p-tolyl)vinyl]phenylethynyl]-2-fluoro-benzoic acid]	6.09	5.94	6.63
C=C(c1cccc(C)c1)c1cc(C#Cc2ccc(C(=O)O)cc2)ccc1OC(C)C [Compound 31, 4-[[4'-Isopropoxy-3'-(1-m-tolyl)vinyl]phenylethynyl]benzoic acid]	6.44	5.48	6.31
